As a reminder, the solubility is how much of the substance goes into solution per volume. A higher solubility goes with much dissolved substance.

The structures appear in SMILES notation. In brackets after ≈: the same amount, converted by molar mass.

This data set is described as follows: Solubility of active compound (I). In kind it is physicochemical. The protocol:
The active compound (I) has a relatively poor water solubility (about 7 mg/l). As a result of this, difficulties with the oral bioavailability and an increased biological variability of the absorption rate can result.
An alternative process is the amorphization of the active compound. […] Amorphization of the active compound by means of the fusion method is also disadvantageous because of the high melting point of the active compound (about 230° C.), since an undesirably high proportion of breakdown components is formed during the preparation.

For `O=C(NC[C@H]1CN(c2ccc(N3CCOCC3=O)cc2)C(=O)O1)c1ccc(Cl)s1` [active compound (I), 5-chloro-N-({(5S)-2-oxo-3-[4-(3-oxo-4-morpholinyl)-phenyl]-1,3-oxazolidin-5-yl}-methyl)-2-thiophenecarboxamide], where the note is “solvents such as ethanol or acetone”, the “solubility in pharmaceutically acceptable solvents” value was “poorly soluble”. The molecule further yielded a solubility (water) of around 7 µg/mL (≈ 16.1 µM).

These data come from patent US9415053B2, “Solid, orally administrable pharmaceutical composition” (Bayer Intellectual Property GmbH, priority 2003, dated 2016).
